Our source for the IC50 cell viability values is the supplement of paper PMC12137928.

The subject of the assay is HCT116. Conditions: 72 h. In short, it runs like this:
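Luminescence was read with CellTiter-Glo in HCT116 cells seeded at 250 per well in 1536-well plates. Signals were scaled between vehicle at 0% and positive control at -100%, then pattern-corrected. IC50 and maximal efficacy were obtained by fitting a four-parameter Hill equation.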

Counter-ions that a name gives are not always drawn.

For the compound `CNC[C@H](O)c1ccc(O)c(O)c1` [Epinephrine], the IC50 cell viability is, setting by setting: (ICRF193 0 nM) greater than 45.8 µM; (ICRF193 200 nM) greater than 45.8 µM.
Regarding `COc1cc(C)nc(-n2nc(C)cc2OC)n1` [Epirizole], the IC50 cell viability runs as follows: (ICRF193 0 nM) greater than 45.8 µM; (ICRF193 200 nM) greater than 45.8 µM.
As to `C[C@]12C[C@H]3S[C@H]3C[C@@H]1CC[C@@H]1[C@@H]2CC[C@]2(C)[C@@H](O)CC[C@@H]12` [Epitiostanol], the IC50 cell viability is greater than 45.8 µM (ICRF193 0 nM) and greater than 45.8 µM (ICRF193 200 nM).
Consider `COC(=O)[C@@H]1CC2=CC(=O)CC[C@]2(C)[C@@]23O[C@@H]2C[C@@]2(C)[C@@H](CC[C@@]24CCC(=O)O4)[C@H]13` [Eplerenone], for which the IC50 cell viability (ICRF193 0 nM) was greater than 45.8 µM and the IC50 cell viability (ICRF193 200 nM) was greater than 45.8 µM.
Take `CCCCC[C@H](O)/C=C/[C@@H]1[C@H]2C/C(=C/CCCC(=O)O)O[C@H]2C[C@H]1O` [Epoprostenol sodium]: the IC50 cell viability by setting is: (ICRF193 0 nM) greater than 45.8 µM; (ICRF193 200 nM) greater than 45.8 µM.
Consider `CCOC(CN1CCN(CC(C)C(=O)c2ccccc2)CC1)c1ccccc1` (stereo unspecified) [Eprazinone dihydrochloride], for which the IC50 cell viability by setting is: (ICRF193 0 nM) greater than 45.8 µM; (ICRF193 200 nM) greater than 45.8 µM.
For `CC(C)(C)NC(=O)[C@H]1CC[C@H]2[C@@H]3CC=C4C=C(C(=O)O)CC[C@]4(C)[C@H]3CC[C@]12C` [Epristeride], the IC50 cell viability runs as follows: (ICRF193 0 nM) greater than 45.8 µM; (ICRF193 200 nM) greater than 45.8 µM.
`CCCCc1ncc(/C=C(\Cc2cccs2)C(=O)O)n1Cc1ccc(C(=O)O)cc1` [Eprosartan mesylate]: the IC50 cell viability is greater than 45.8 µM (ICRF193 0 nM) and greater than 45.8 µM (ICRF193 200 nM).
Take `O=C(C1CCCCC1)N1CC(=O)N2CCCc3ccccc3C2C1` (stereo unspecified) [Epsiprantel]: the IC50 cell viability by setting is: (ICRF193 0 nM) greater than 45.8 µM; (ICRF193 200 nM) greater than 45.8 µM.
For the compound `N=C(N)NCCCC[C@@H]1NC(=O)CCSSC[C@@H](C(N)=O)NC(=O)[C@@H]2CCCN2C(=O)[C@H](Cc2c[nH]c3ccccc23)NC(=O)[C@H](CC(=O)O)NC(=O)CNC1=O` [Eptifibatide], the IC50 cell viability reads like this: (ICRF193 0 nM) greater than 45.8 µM; (ICRF193 200 nM) greater than 45.8 µM.
In turn, `O=C(O)CSCC(=O)NC1CCSC1=O` (stereo unspecified) [Erdosteine] gave an IC50 cell viability (ICRF193 0 nM) greater than 45.8 µM and an IC50 cell viability (ICRF193 200 nM) greater than 45.8 µM.
Compound `C[C@@H](CO)NC(=O)[C@@H]1C=C2c3cccc4[nH]cc(c34)C[C@H]2N(C)C1` [Ergobasine] showed an IC50 cell viability (ICRF193 0 nM) greater than 45.8 µM and an IC50 cell viability (ICRF193 200 nM) greater than 45.8 µM.
As for `C[C@@H](O)[C@H]1C(=O)N2C(C(=O)O)=C(S[C@@H]3CN[C@H](C(=O)Nc4cccc(C(=O)O)c4)C3)[C@H](C)[C@H]12` [Ertapenem], the IC50 cell viability by setting is: (ICRF193 0 nM) greater than 45.8 µM; (ICRF193 200 nM) greater than 45.8 µM.
With `CCC(=O)O[C@H]1[C@H](O[C@@H]2[C@@H](C)[C@H](O[C@H]3C[C@@](C)(OC)[C@@H](O)[C@H](C)O3)[C@@H](C)C(=O)O[C@H](CC)[C@@](C)(O)[C@H](O)[C@@H](C)C(=O)[C@H](C)C[C@@]2(C)O)O[C@H](C)C[C@@H]1N(C)C` [Erythromycin propionate], the IC50 cell viability by setting is: (ICRF193 0 nM) greater than 45.8 µM; (ICRF193 200 nM) greater than 45.8 µM.
In the case of `O=C1OC2(c3ccccc31)c1cc(I)c(O)c(I)c1Oc1c2cc(I)c(O)c1I` [Erythrosin B], the IC50 cell viability is, setting by setting: (ICRF193 0 nM) greater than 45.8 µM; (ICRF193 200 nM) greater than 45.8 µM.
Turning to `O=c1ccc2cc(O[C@@H]3O[C@H](CO)[C@@H](O)[C@H](O)[C@H]3O)c(O)cc2o1` [Esculin hydrate], the IC50 cell viability by setting is: (ICRF193 0 nM) greater than 45.8 µM; (ICRF193 200 nM) greater than 45.8 µM.
With `CC(=O)O[C@H]1Cc2ccccc2N(C(N)=O)c2ccccc21` [Eslicarbazepine (acetate)], the IC50 cell viability runs as follows: (ICRF193 0 nM) greater than 45.8 µM; (ICRF193 200 nM) greater than 45.8 µM.
For `COC(=O)CCc1ccc(OCC(O)CNC(C)C)cc1` (stereo unspecified) [Esmolol hydrochloride], the IC50 cell viability was greater than 45.8 µM (ICRF193 0 nM) and greater than 45.8 µM (ICRF193 200 nM).
The compound `CC(=O)SCC(CC(=O)c1ccc(C)cc1)C(=O)O` (stereo unspecified) [Esonarimod] returned an IC50 cell viability (ICRF193 0 nM) greater than 45.8 µM and an IC50 cell viability (ICRF193 200 nM) greater than 45.8 µM.
As to `C[C@]12CC[C@@H]3c4ccc(O)cc4CC[C@H]3[C@@H]1CC[C@@H]2OC(=O)CCC1CCCC1` [Estradiol cypionate], the IC50 cell viability by setting is: (ICRF193 0 nM) greater than 45.8 µM; (ICRF193 200 nM) greater than 45.8 µM.
Turning to `CCCCCCC(=O)O[C@H]1CC[C@H]2[C@@H]3CCc4cc(O)ccc4[C@H]3CC[C@]12C` [Estradiol enanthate], the IC50 cell viability by setting is: (ICRF193 0 nM) greater than 45.8 µM; (ICRF193 200 nM) greater than 45.8 µM.
For `C[C@]12CC[C@@H]3c4ccc(OC(=O)N(CCCl)CCCl)cc4CC[C@H]3[C@@H]1CC[C@@H]2O` [Estramustine], the IC50 cell viability was greater than 45.8 µM (ICRF193 0 nM) and greater than 45.8 µM (ICRF193 200 nM).
In the case of `CC(=O)O[C@@H]1C[C@H]2[C@@H]3CCc4cc(OC(=O)c5ccccc5)ccc4[C@H]3CC[C@]2(C)[C@H]1OC(C)=O` [Estriol benzoate diacetate], the IC50 cell viability (ICRF193 0 nM) was greater than 45.8 µM and the IC50 cell viability (ICRF193 200 nM) was greater than 45.8 µM.
Consider `CCC(=O)Oc1ccc2c(c1)CC[C@@H]1[C@@H]2CC[C@@]2(C)[C@H]1C[C@@H](OC(=O)CC)[C@@H]2OC(=O)CC` [Estriol tripropionate], for which the IC50 cell viability runs as follows: (ICRF193 0 nM) greater than 45.8 µM; (ICRF193 200 nM) greater than 45.8 µM.
`C[C@]12CC[C@@H]3c4ccc(O)cc4CC[C@H]3[C@@H]1C[C@@H](O)[C@@H]2O` [Estriol]: the IC50 cell viability was greater than 45.8 µM (ICRF193 0 nM) and greater than 45.8 µM (ICRF193 200 nM).
With `C[C@]12CC[C@@H]3c4ccc(O)cc4CC[C@H]3[C@@H]1CCC2=O` [Estrone], the IC50 cell viability reads like this: (ICRF193 0 nM) greater than 45.8 µM; (ICRF193 200 nM) greater than 45.8 µM.
On to `CN1CCN(C(=O)O[C@H]2c3nccnc3C(=O)N2c2ccc(Cl)cn2)CC1` [Eszopiclone], for which the IC50 cell viability reads like this: (ICRF193 0 nM) greater than 45.8 µM; (ICRF193 200 nM) greater than 45.8 µM.
As to `CCN(C)C(C)C(O)c1ccccc1` (stereo unspecified) [Etafedrine hydrochloride], the IC50 cell viability is, setting by setting: (ICRF193 0 nM) greater than 45.8 µM; (ICRF193 200 nM) greater than 45.8 µM.
As for `CCN(CC)CCOc1ccccc1C(=O)CCc1ccccc1` [Etafenone], the IC50 cell viability by setting is: (ICRF193 0 nM) greater than 45.8 µM; (ICRF193 200 nM) greater than 45.8 µM.
Turning to `C=C(CC)C(=O)c1ccc(OCC(=O)O)c(Cl)c1Cl` [Ethacrynic acid], the IC50 cell viability is, setting by setting: (ICRF193 0 nM) greater than 45.8 µM; (ICRF193 200 nM) greater than 45.8 µM.
For `CC[C@@H](CO)NCCN[C@@H](CC)CO` [Ethambutol dihydrochloride], the IC50 cell viability reads like this: (ICRF193 0 nM) greater than 45.8 µM; (ICRF193 200 nM) greater than 45.8 µM.
For `C#CC(O)(/C=C/Cl)CC` (stereo unspecified) [Ethchlorvynol], the IC50 cell viability is greater than 45.8 µM (ICRF193 0 nM) and greater than 45.8 µM (ICRF193 200 nM).
The compound `CCC1Nc2cc(Cl)c(S(N)(=O)=O)cc2S(=O)(=O)N1` (stereo unspecified) [Ethiazide] displayed an IC50 cell viability (ICRF193 0 nM) greater than 45.8 µM and an IC50 cell viability (ICRF193 200 nM) greater than 45.8 µM.
For `CCc1cc(C(N)=S)ccn1` [Ethionamide], the IC50 cell viability was greater than 45.8 µM (ICRF193 0 nM) and greater than 45.8 µM (ICRF193 200 nM).
`CCOC(=O)C1(c2ccccc2)CCCN(C)CC1` (stereo unspecified) [Ethoheptazine hydrochloride] gave an IC50 cell viability (ICRF193 0 nM) greater than 45.8 µM and an IC50 cell viability (ICRF193 200 nM) greater than 45.8 µM.
On to `CCN(CC)C(C)CN1c2ccccc2Sc2ccccc21` (stereo unspecified) [Ethopropazine hydrochloride], for which the IC50 cell viability (ICRF193 0 nM) is greater than 45.8 µM and the IC50 cell viability (ICRF193 200 nM) was greater than 45.8 µM.
`CCC1(C)CC(=O)NC1=O` (stereo unspecified) [Ethosuximide]: the IC50 cell viability is, setting by setting: (ICRF193 0 nM) greater than 45.8 µM; (ICRF193 200 nM) greater than 45.8 µM.
Consider `CCN1C(=O)NC(c2ccccc2)C1=O` (stereo unspecified) [Ethotoin], for which the IC50 cell viability by setting is: (ICRF193 0 nM) greater than 45.8 µM; (ICRF193 200 nM) greater than 45.8 µM.
